# According to patent US12491202B2, “Phospholipid ether analogs for imaging and targeted treatment of pediatric solid tumors” (Wisconsin Alumni Research Foundation, priority 2016, dated 2025):
# Assays:
# [1] = test system: normal human pediatric fibroblast (HUFI) cells; assay: CLR1501 uptake by flow cytometry in normal fibroblasts; type: cell-based; conditions: 5 μM, 16-19 hours incubation; compared with pediatric tumor cell lines
# Excerpt: (§1) FIG. 4 is a bar graph illustrating the preferential uptake of CLR1501, a fluorescent derivative of CLR1404, by pediatric solid cancer cells (rhabdomyosarcoma Rd, Rh-41; Ewing's sarcoma TC-71, TC-106; neuroblastoma SK-N-AS, NB1691; osteosarcoma SAOS-2; glioblastoma SJ-GBM2), and for reference, the adult cancer cell lines PC3 and MT-330, compared to normal human fibroblasts (HUFI), by flow cytometry. Mean±standard error (SE) from minimum 3 experiments per cell line, *P≤0.01. MFI, mean fluorescence intensity; RMS, rhabdomyosarcoma; EWS, Ewing's sarcoma; NB, neuroblastoma; OS, osteosarcoma; GB, glioblastoma, PC, prostate adenocarcinoma. Cells were plated at 5×10^5 cells/ml in triplicates in media containing 5 μM CLR1501 (fluorescent CLR1404). Mean fluorescence intensity corrected for auto-fluorescence was averaged from three experiments±standard deviation.
# (§2) Each cell line (5×10^5 cells/ml) was incubated for 16-19 hours with 5 μM CLR1501, then washed with 10% FBS medium for 4 hours. Cells were then measured by flow cytometry (FACSCalibur, BD Biosciences) and analyzed using FlowJo 8.2 (Tree Star, Ashland, Oreg.). Mean fluorescence intensity (MFI) per cell was corrected for autofluorescence (FL1 index) and averaged from three experiments±standard deviation.
# [2] = test system: pediatric solid tumor cells; assay: CLR1501 uptake by flow cytometry in pediatric solid tumor cell lines; type: cell-based, human; conditions: 5 μM, 16-19 hours incubation, 4 hours wash; Rd, Rh-41, TC-71, TC-106, SK-N-AS, NB-1691, SAOS-2, SJ-GBM2 p<0.01; CHLA-20, Rh-30 p≤0.02
# Excerpt: as §1, §2
# [3] = test system: xenografted pediatric solid tumor tissue (Rh30, TC-71, CHLA-20, NB-1691); assay: In vivo uptake of 124I-CLR1404 by PET/CT in xenografted mice; parameters: species or system mouse; conditions: NSG mice, 8-13 μCi/g via tail vein injection
# Procedure: Specifically, […] with one of four different pediatric tumor cell lines (CHLA-20 (neuroblastoma), NB-1691 (neuroblastoma), TC-71 (Ewing sarcoma), and Rh-30 (rhabdomyosarcoma). For each of the sixteen xenografted mice, 100 μl cell suspension containing 3×10^6 tumor cells (>95% viability, passage 5-25) was inoculated into subcutaneous tissue of the left flank of a 6-8 week-old NSG mouse (NOD.Cg-Prdc^scidII2rg^tm1Wj1/SzJ, Jackson Laboratory, Bar Harbor, Me.). Once xenograft tumors measured a minimum of about 7×7 mm, the mice received ^124I-CLR1404 at 8-13 μCi/g via tail vein injection. After an uptake period, PET/CT imaging was performed on the mice at 5 and 6 time-points. Following image acquisition, the images were reconstructed, co-registered, resampled, rescaled, and corrected for partial volume effects (PVE), and masked.
# [4] = test system: TC-106 Ewing's sarcoma xenograft; assay: Tumor growth rate, linear mixed effects model, TC-106 xenograft; type: in vivo, mouse; conditions: 3.5 μCi/g, excipient slope 0.26, P <0.0001
# Procedure: (§3) Rh30, TC-71, TC-106, CHLA-20, NB-1691, and SAOS-2 subcutaneous flank xenografts were induced in mice, as described in Example 2 above. Tumors were measured twice weekly with calipers, and the tumor volume was calculated. When tumors reached a volume of approximately 50 mm^3, mice were randomly assigned to receive either ^131I-CLR1404 in doses of 3.5 μCi/g or an excipient (equimolar ^127I-CLR1404), and measurement of tumor size continued. Survival rates as a function of time were also observed in the xenografted mice.
# (§4) A linear mixed effects analysis of predicted growth rate was performed using the tumor size data described above. The results are shown in Table 1 below, and in graphical form in FIG. 10.
# [5] = test system: Rh30 rhabdomyosarcoma xenograft; assay: Tumor growth rate, linear mixed effects model, Rh30 xenograft; type: in vivo, mouse; conditions: 3.5 μCi/g, excipient slope 0.18, P <0.0001
# Procedure: as §3, §4
# [6] = test system: SAOS-2 osteosarcoma xenograft; assay: Tumor growth rate, linear mixed effects model, SAOS-2 xenograft; type: in vivo, mouse; conditions: 3.5 μCi/g, excipient slope 0.11, P <0.0001
# Procedure: as §3, §4
# [7] = test system: CHLA-20 neuroblastoma xenograft; assay: Tumor growth rate, linear mixed effects model, CHLA-20 xenograft; type: in vivo, mouse; conditions: 3.5 μCi/g, excipient slope 0.13, P 0.0124
# Procedure: as §3, §4
# [8] = test system: TC-71 Ewing's sarcoma xenograft; assay: Tumor growth rate, linear mixed effects model, TC-71 xenograft; type: in vivo, mouse; conditions: 3.5 μCi/g, excipient slope 0.14, P <0.0003
# Procedure: as §3, §4
# [9] = test system: NB-1691 neuroblastoma xenograft; assay: Tumor growth rate, linear mixed effects model, NB-1691 xenograft; type: in vivo, mouse; conditions: 3.5 μCi/g, excipient slope 0.15, P <0.0001
# Procedure: as §3, §4
# [10] = test system: pediatric solid cancer xenografts; assay: Tumor volume, survival and toxicity in pediatric solid cancer xenograft NSG models; type: in vivo, mouse; conditions: 3.5 μCi/g
# Procedure: as §3
compound,measurement,setting,value
C[N+](C)(C)CCOP(=O)([O-])OCCCCCCCCCCCCCCCCCCc1ccc(C2=C3C=CC=[N+]3[B-](F)(F)n3cccc32)cc1 [CLR1501],CLR1501 uptake in normal cells,[1],much less uptake
same,CLR1501 uptake (mean fluorescence intensity) versus normal pediatric fibroblast (HUFI) cells,[2],significantly higher
C[N+](C)(C)CCOP(=O)([O-])OCCCCCCCCCCCCCCCCCCc1ccc([124I])cc1 [^124I-CLR1404],Uptake into xenografted tumor tissue (PET/CT),[3],differential uptake
C[N+](C)(C)CCOP(=O)([O-])OCCCCCCCCCCCCCCCCCCc1ccc([131I])cc1 [^131I-CLR1404],Slope log volume (prediction of the tumor growth rate),[4],0.10
same,Slope log volume (prediction of the tumor growth rate),[5],0.06
same,Slope log volume (prediction of the tumor growth rate),[6],0.08
same,Slope log volume (prediction of the tumor growth rate),[7],0.09
same,Slope log volume (prediction of the tumor growth rate),[8],0.08
same,Slope log volume (prediction of the tumor growth rate),[9],0.09
same,Toxicity,[10]; xenografted mice,low toxicity
same,Mean tumor volumes versus excipient,"[10]; Rh30, TC-71, CHLA-20 and NB-1691 xenografts",decreased mean tumor volumes
same,Animal survival versus excipient,"[10]; four groups, statistically significant in Ewing's sarcoma and rhabdomyosarcoma xenografts",extended animal survival
